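Values below derive from 48-hour exposures of cells grown in 96-well plates, with endpoints linearly interpolated between the two concentrations bracketing the appropriate inhibition level. Here, GI50 denotes the concentration required for 50% inhibition of growth.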 Calls of active or inactive are those of the source. No stated cut-off is given here; in the data, active = GI50 up to about 1.1 µM and inactive = higher.
Tests used:
Test in all cases: DTP human tumour cell line panel, 48 h
786-0 = test system: 786-0
A498 = test system: A498
A549 = test system: A549
ACHN = test system: ACHN
BT-549 = test system: BT-549
CAKI-1 = test system: CAKI-1
CCRF-CEM = test system: CCRF-CEM
COLO 205 = test system: COLO 205
DU-145 = test system: DU-145
EKVX = test system: EKVX
HCC 2998 = test system: HCC 2998
HCT-116 = test system: HCT-116
HCT-15 = test system: HCT-15
HL-60 = test system: HL-60
HOP-62 = test system: HOP-62
HOP-92 = test system: HOP-92
HT-29 = test system: HT-29
Hs-578T = test system: Hs-578T
IGROV-1 = test system: IGROV-1
K562 = test system: K562
KM12 = test system: KM12
LOX IMVI = test system: LOX IMVI
M14 = test system: M14
MCF7 = test system: MCF7
MDA-MB-231 = test system: MDA-MB-231
MDA-MB-435 = test system: MDA-MB-435
MDA-N = test system: MDA-N
MOLT-4 = test system: MOLT-4
Malme-3M = test system: Malme-3M
NCI-H226 = test system: NCI-H226
NCI-H23 = test system: NCI-H23
NCI-H460 = test system: NCI-H460
NCI-H522 = test system: NCI-H522
NCI/ADR-RES = test system: NCI/ADR-RES
OVCAR-3 = test system: OVCAR-3
OVCAR-4 = test system: OVCAR-4
OVCAR-5 = test system: OVCAR-5
OVCAR-8 = test system: OVCAR-8
PC-3 = test system: PC-3
RPMI-8226 = test system: RPMI-8226
RXF 393 = test system: RXF 393
SF-268 = test system: SF-268
SF-295 = test system: SF-295
SK-MEL-28 = test system: SK-MEL-28
SK-MEL-2 = test system: SK-MEL-2
SK-MEL-5 = test system: SK-MEL-5
SK-OV-3 = test system: SK-OV-3
SN12C = test system: SN12C
SNB-19 = test system: SNB-19
SR = test system: SR
SW-620 = test system: SW-620
T47D = test system: T47D
TK-10 = test system: TK-10
U-251 = test system: U-251
UACC-257 = test system: UACC-257
UACC-62 = test system: UACC-62
UO-31 = test system: UO-31
SF-539 = test system: SF-539
SNB-75 = test system: SNB-75

Cc1ccc(N2C(=O)C3c4[nH]c5ccccc5c4C4CCC(C(C)(C)C)CC4C3C2=O)cc1 (centres undefined)
GI50 (786-0): 5.06 µM (inactive)
GI50 (A498): 16.2 µM (inactive)
GI50 (A549): 10.1 µM (inactive)
GI50 (ACHN): 6.64 µM (inactive)
GI50 (BT-549): 19.2 µM (inactive)
GI50 (CAKI-1): 10.2 µM (inactive)
GI50 (CCRF-CEM): 5.36 µM (inactive)
GI50 (COLO 205): 8.95 µM (inactive)
GI50 (DU-145): 2.48 µM (inactive)
GI50 (EKVX): 13.6 µM (inactive)
GI50 (HCC 2998): 14.8 µM (inactive)
GI50 (HCT-116): 11.1 µM (inactive)
GI50 (HCT-15): 34.6 µM
GI50 (HL-60): 7.62 µM (inactive)
GI50 (HOP-62): 5.38 µM (inactive)
GI50 (HOP-92): 15.1 µM (inactive)
GI50 (HT-29): 13 µM (inactive)
GI50 (Hs-578T): 4.1 µM (inactive)
GI50 (IGROV-1): 11.4 µM (inactive)
GI50 (K562): 5.51 µM (inactive)
GI50 (KM12): 17.5 µM (inactive)
GI50 (LOX IMVI): 11.6 µM (inactive)
GI50 (M14): 13.6 µM (inactive)
GI50 (MCF7): 12.6 µM (inactive)
GI50 (MDA-MB-231): 3.78 µM (inactive)
GI50 (MDA-MB-435): 16.8 µM (inactive)
GI50 (MDA-N): 16.8 µM (inactive)
GI50 (MOLT-4): 3.17 µM (inactive)
GI50 (Malme-3M): 6.9 µM (inactive)
GI50 (NCI-H226): 17.4 µM (inactive)
GI50 (NCI-H23): 15.1 µM (inactive)
GI50 (NCI-H460): 6.46 µM (inactive)
GI50 (NCI-H522): 11.2 µM (inactive)
GI50 (NCI/ADR-RES): 12.8 µM (inactive)
GI50 (OVCAR-3): 3.03 µM (inactive)
GI50 (OVCAR-4): 7.21 µM (inactive)
GI50 (OVCAR-5): 14.1 µM (inactive)
GI50 (OVCAR-8): 7.71 µM (inactive)
GI50 (PC-3): 13 µM (inactive)
GI50 (RPMI-8226): 8.85 µM (inactive)
GI50 (RXF 393): 10.4 µM (inactive)
GI50 (SF-268): 6.78 µM (inactive)
GI50 (SF-295): 8.15 µM (inactive)
GI50 (SK-MEL-28): 18.3 µM (inactive)
GI50 (SK-MEL-2): 21.3 µM (inactive)
GI50 (SK-MEL-5): 16.8 µM (inactive)
GI50 (SK-OV-3): 14.9 µM (inactive)
GI50 (SN12C): 10.3 µM (inactive)
GI50 (SNB-19): 8.75 µM (inactive)
GI50 (SR): 6.05 µM (inactive)
GI50 (SW-620): > 26.1 µM (inactive)
GI50 (T47D): 15.6 µM (inactive)
GI50 (TK-10): 6 µM (inactive)
GI50 (U-251): 4.49 µM (inactive)
GI50 (UACC-257): 13.3 µM (inactive)
GI50 (UACC-62): 16.4 µM (inactive)
GI50 (UO-31): 14.9 µM (inactive)

CCOC(=O)C(NC(=O)c1ccccc1)(Nc1ccc(S(=O)(=O)Nc2nc(C)cc(C)n2)cc1)C(F)(F)F (centres undefined)
GI50 (786-0): > 100 µM (inactive)
GI50 (A549): > 100 µM (inactive)
GI50 (ACHN): > 100 µM (inactive)
GI50 (BT-549): > 100 µM (inactive)
GI50 (CAKI-1): > 100 µM (inactive)
GI50 (CCRF-CEM): > 100 µM (inactive)
GI50 (COLO 205): > 100 µM (inactive)
GI50 (DU-145): > 100 µM (inactive)
GI50 (EKVX): > 100 µM (inactive)
GI50 (HCC 2998): > 100 µM (inactive)
GI50 (HCT-116): > 100 µM (inactive)
GI50 (HCT-15): > 100 µM
GI50 (HL-60): > 100 µM (inactive)
GI50 (HOP-62): > 100 µM (inactive)
GI50 (HOP-92): > 100 µM (inactive)
GI50 (HT-29): > 100 µM (inactive)
GI50 (Hs-578T): > 100 µM (inactive)
GI50 (IGROV-1): > 100 µM (inactive)
GI50 (K562): > 100 µM (inactive)
GI50 (KM12): > 100 µM (inactive)
GI50 (LOX IMVI): > 100 µM (inactive)
GI50 (M14): > 100 µM (inactive)
GI50 (MCF7): > 100 µM (inactive)
GI50 (MDA-MB-231): 86.5 µM (inactive)
GI50 (MDA-MB-435): > 100 µM (inactive)
GI50 (MDA-N): > 100 µM (inactive)
GI50 (MOLT-4): > 100 µM (inactive)
GI50 (Malme-3M): > 100 µM (inactive)
GI50 (NCI-H226): > 100 µM (inactive)
GI50 (NCI-H23): > 100 µM (inactive)
GI50 (NCI-H460): > 100 µM (inactive)
GI50 (NCI/ADR-RES): > 100 µM (inactive)
GI50 (OVCAR-3): > 100 µM (inactive)
GI50 (OVCAR-4): > 100 µM (inactive)
GI50 (OVCAR-5): > 100 µM (inactive)
GI50 (OVCAR-8): > 100 µM (inactive)
GI50 (PC-3): > 100 µM (inactive)
GI50 (RPMI-8226): > 100 µM (inactive)
GI50 (RXF 393): > 100 µM (inactive)
GI50 (SF-268): > 100 µM (inactive)
GI50 (SF-295): > 100 µM (inactive)
GI50 (SF-539): > 100 µM (inactive)
GI50 (SK-MEL-28): > 100 µM (inactive)
GI50 (SK-MEL-2): > 100 µM (inactive)
GI50 (SK-MEL-5): > 100 µM (inactive)
GI50 (SK-OV-3): 0.778 µM (active)
GI50 (SN12C): > 100 µM (inactive)
GI50 (SNB-19): > 100 µM (inactive)
GI50 (SNB-75): > 100 µM (inactive)
GI50 (SR): > 100 µM (inactive)
GI50 (SW-620): > 100 µM (inactive)
GI50 (T47D): > 100 µM (inactive)
GI50 (TK-10): > 100 µM (inactive)
GI50 (U-251): > 100 µM (inactive)
GI50 (UACC-257): > 100 µM (inactive)
GI50 (UACC-62): > 100 µM (inactive)
GI50 (UO-31): > 100 µM (inactive)
